Results as given in ChEMBL document CHEMBL4476884, “Thienopyridine carboxamides as ubiquitin-specific protease inhibitors” (2017).

How the values were obtained:
[1] = molecular target: T1, Ubiquitin carboxyl-terminal hydrolase 25 (Homo sapiens, UniProt Q9UHP3); experiment: Inhibition of recombinant C-terminal 6-His tagged human USP25 using ubiquitin-rhodamine 110 as substrate preincubated for 30 mins followed by substrate addition and measured after 45 mins by fluorescence based assay
T1 sequence (Q9UHP3 whole entry): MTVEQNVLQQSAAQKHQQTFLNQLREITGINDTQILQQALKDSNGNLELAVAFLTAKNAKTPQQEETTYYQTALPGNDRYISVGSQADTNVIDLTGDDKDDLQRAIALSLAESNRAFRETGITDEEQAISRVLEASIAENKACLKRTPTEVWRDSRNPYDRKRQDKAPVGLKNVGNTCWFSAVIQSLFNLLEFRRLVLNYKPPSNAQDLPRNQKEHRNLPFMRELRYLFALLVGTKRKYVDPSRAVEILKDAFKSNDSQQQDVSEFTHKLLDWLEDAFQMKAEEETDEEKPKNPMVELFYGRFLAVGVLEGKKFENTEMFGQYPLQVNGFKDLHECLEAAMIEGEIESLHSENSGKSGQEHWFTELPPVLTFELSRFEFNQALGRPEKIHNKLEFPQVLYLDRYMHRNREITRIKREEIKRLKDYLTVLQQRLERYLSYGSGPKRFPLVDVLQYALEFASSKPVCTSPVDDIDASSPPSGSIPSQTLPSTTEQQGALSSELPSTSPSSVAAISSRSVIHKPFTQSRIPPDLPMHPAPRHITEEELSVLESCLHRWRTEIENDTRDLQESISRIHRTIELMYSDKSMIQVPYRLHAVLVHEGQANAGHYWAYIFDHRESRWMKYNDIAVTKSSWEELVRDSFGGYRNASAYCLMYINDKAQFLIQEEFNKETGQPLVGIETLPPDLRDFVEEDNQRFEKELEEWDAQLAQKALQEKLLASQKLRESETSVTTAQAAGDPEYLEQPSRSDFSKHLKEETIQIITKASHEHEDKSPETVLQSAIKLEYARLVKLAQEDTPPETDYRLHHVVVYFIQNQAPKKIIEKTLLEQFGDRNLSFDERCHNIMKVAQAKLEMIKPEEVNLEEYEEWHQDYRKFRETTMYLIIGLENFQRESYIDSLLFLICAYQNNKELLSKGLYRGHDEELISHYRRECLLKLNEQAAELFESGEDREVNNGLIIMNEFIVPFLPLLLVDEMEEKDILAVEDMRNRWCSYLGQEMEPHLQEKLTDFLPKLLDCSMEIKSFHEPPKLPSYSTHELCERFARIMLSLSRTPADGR

[2] = molecular target: T2, Ubiquitin carboxyl-terminal hydrolase 28 (Homo sapiens, UniProt Q96RU2); experiment: Inhibition of TEV-cleavable hexa-histidine tagged USP28 (1 to 1077 residues) (unknown origin) using ubiquitin-rhodamine 110 as substrate and measured after 90 mins by fluorescence based assay
T2 sequence (Q96RU2 whole entry): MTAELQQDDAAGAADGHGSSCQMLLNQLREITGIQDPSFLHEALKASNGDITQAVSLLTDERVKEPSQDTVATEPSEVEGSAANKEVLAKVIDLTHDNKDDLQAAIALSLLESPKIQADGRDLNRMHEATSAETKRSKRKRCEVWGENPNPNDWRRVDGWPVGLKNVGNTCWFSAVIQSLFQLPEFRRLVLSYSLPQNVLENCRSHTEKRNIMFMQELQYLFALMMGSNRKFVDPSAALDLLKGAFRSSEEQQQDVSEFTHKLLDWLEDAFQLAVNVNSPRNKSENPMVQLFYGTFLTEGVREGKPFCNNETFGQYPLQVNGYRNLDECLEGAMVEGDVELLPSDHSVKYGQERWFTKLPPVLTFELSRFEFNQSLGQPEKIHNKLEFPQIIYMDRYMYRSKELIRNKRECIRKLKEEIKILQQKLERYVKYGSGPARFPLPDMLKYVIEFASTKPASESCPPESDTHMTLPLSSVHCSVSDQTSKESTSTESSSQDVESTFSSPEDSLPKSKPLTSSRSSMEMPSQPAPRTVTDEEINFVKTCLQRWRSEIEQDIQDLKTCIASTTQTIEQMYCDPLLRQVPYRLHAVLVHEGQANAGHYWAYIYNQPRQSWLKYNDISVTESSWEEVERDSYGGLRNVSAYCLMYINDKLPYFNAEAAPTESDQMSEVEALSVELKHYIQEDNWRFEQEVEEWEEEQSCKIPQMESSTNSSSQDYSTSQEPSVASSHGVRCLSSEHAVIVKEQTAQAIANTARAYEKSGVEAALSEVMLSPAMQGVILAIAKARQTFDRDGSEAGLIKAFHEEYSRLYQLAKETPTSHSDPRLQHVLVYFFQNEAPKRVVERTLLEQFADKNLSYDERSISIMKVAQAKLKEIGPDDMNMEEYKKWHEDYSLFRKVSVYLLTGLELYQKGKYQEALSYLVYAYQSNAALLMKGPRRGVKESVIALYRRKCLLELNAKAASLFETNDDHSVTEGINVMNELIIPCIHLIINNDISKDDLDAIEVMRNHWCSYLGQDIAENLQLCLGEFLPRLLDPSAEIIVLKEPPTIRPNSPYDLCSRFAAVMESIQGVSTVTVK

| SMILES | IC50 [1] [nM] | IC50 [2] [nM] |
| --- | --- | --- |
| Cc1ccc2c(N)c(C(=O)NCCc3ccc(N4CCNCC4)c(-c4cnn(C)c4)c3)sc2n1 | 2000 to 10000 | 200 to 2000 |
| Cc1ccc2c(N)c(C(=O)NCCc3ccc(N4CCN[C@H](C)C4)cc3)sc2n1 | 200 to 2000 | < 200 |
| Cc1ccc2c(N)c(C(=O)NCCc3ccc(N4CCNCC4)c(-c4cncnc4)c3)sc2n1 | 200 to 2000 | 200 to 2000 |
| Cc1cccc(-c2cc(CCNC(=O)c3sc4nc(C)ccc4c3N)ccc2N2CCNCC2)c1 | 2000 to 10000 | 10000 to 25000 |
| Cc1ccc2c(N)c(C(=O)NCCc3ccc(N(C)CC4CCCNC4)cc3)sc2n1 (centres undefined) | 200 to 2000 | 200 to 2000 |
| Cc1ccc2c(N)c(C(=O)NCCc3ccc(N4CCNCC4)c(-c4cccc(Cl)c4)c3)sc2n1 | 2000 to 10000 | 2000 to 10000 |
| Cc1ccc2c(N)c(C(=O)NCCc3ccc(N4CCNCC4)c(-c4ccc(Cl)cc4)c3)sc2n1 | 2000 to 10000 | 2000 to 10000 |
| Cc1ccc2c(N)c(C(=O)NCCc3ccc(N4CCNCC4)c(-c4ccccc4F)c3)sc2n1 | 2000 to 10000 | 200 to 2000 |
| COCCn1cc(-c2cc(CCNC(=O)c3sc4nc(C)ccc4c3N)ccc2N2CCNCC2)cn1 | 2000 to 10000 | 2000 to 10000 |
| Cc1ccc2c(N)c(C(=O)NCCc3ccc(N[C@@H]4CCNC4)cc3)sc2n1 |  | < 200 |
| Cc1ccc2c(N)c(C(=O)NCCc3ccc(N4CCNCC4)c(-c4cccc(F)c4)c3)sc2n1 | 2000 to 10000 | 2000 to 10000 |
| Cc1ccc2c(N)c(C(=O)NCCc3ccc(N4CCNCC4)c(-c4ccccc4Cl)c3)sc2n1 | 200 to 2000 | 200 to 2000 |
| Cc1ccc2c(N)c(C(=O)NCCc3ccc(N4CCNCC4)c(-c4ccc(F)cc4)c3)sc2n1 | 2000 to 10000 | 2000 to 10000 |
| Cc1ccc2c(N)c(C(=O)NCCc3ccc(N4CCNCC4)c(-c4ccccc4C)c3)sc2n1 | 2000 to 10000 | 200 to 2000 |
| Cc1ccc2c(N)c(C(=O)NCCc3ccc(N4CCC(NC5CC5)C4)cc3)sc2n1 (centres undefined) | 200 to 2000 | 200 to 2000 |
| Cc1cc(-c2cc(CCNC(=O)c3sc4nc(C)ccc4c3N)ccc2N2CCNCC2)ccn1 | 10000 to 25000 | 2000 to 10000 |
| Cc1ccc(-c2cc(CCNC(=O)c3sc4nc(C)ccc4c3N)ccc2N2CCNCC2)cc1 | 2000 to 10000 | 2000 to 10000 |

Continued, values first:

| IC50 [1] [nM] | IC50 [2] [nM] | SMILES |
| --- | --- | --- |
| 200 to 2000 | < 200 | Cc1ccc2c(N)c(C(=O)NCCc3ccc(N4CCC5(CC4)CNC5)cc3)sc2n1 |
| 200 to 2000 | 200 to 2000 | CN[C@H]1CCN(c2ccc(CCNC(=O)c3sc4nc(C)ccc4c3N)cc2)C1 |
| 2000 to 10000 | 200 to 2000 | Cc1ccc2c(N)c(C(=O)NCCc3ccc(N4CCC5(CCNC5)C4)cc3)sc2n1 (centres undefined) |
| 200 to 2000 | < 200 | Cc1ccc2c(N)c(C(=O)NCCc3ccc(N4CCCC45CCCNC5)cc3)sc2n1 (centres undefined) |
| 200 to 2000 | 200 to 2000 | Cc1ccc2c(N)c(C(=O)NCCc3ccc(N4CCCNCC4)cc3)sc2n1 |
|  | 200 to 2000 | Cc1ccc2c(N)c(C(=O)NCCc3ccc(N4CCC5(CCNC5)CC4)cc3)sc2n1 |
| 200 to 2000 | 200 to 2000 | Cc1ccc2c(N)c(C(=O)NCCc3ccc(N4C[C@H]5CNC[C@H]5C4)cc3)sc2n1 |
| 200 to 2000 | 200 to 2000 | Cc1ccc2c(N)c(C(=O)NCCc3ccc(N4CCCC5(CCNC5)C4)cc3)sc2n1 (centres undefined) |
| 2000 to 10000 | 200 to 2000 | Cc1ccc2c(N)c(C(=O)NCCc3ccc(N4CCC5(CNCCO5)C4)cc3)sc2n1 (centres undefined) |
|  | 200 to 2000 | CNC1CCN(c2ccc(CCNC(=O)c3sc4nc(C)ccc4c3N)cc2)CC1 |
| 2000 to 10000 | 200 to 2000 | Cc1ccc2c(N)c(C(=O)NCCc3ccc(N4CCC5(CCNCC5)C4)cc3)sc2n1 |
| 200 to 2000 | 200 to 2000 | Cc1ccc2c(N)c(C(=O)NCCc3ccc(N4CCN[C@@H](C(C)C)C4)cc3)sc2n1 |
| 2000 to 10000 | 200 to 2000 | Cc1ccc2c(N)c(C(=O)NCCc3ccc(N4CC5(CNC5)C4)cc3)sc2n1 |
|  | 200 to 2000 | CN[C@@H]1CCN(c2ccc(CCNC(=O)c3sc4nc(C)ccc4c3N)cc2)C1 |
|  | 200 to 2000 | Cc1ccc2c(N)c(C(=O)NCCc3ccc(N4CCOC5(CCNCC5)C4)cc3)sc2n1 |
| 200 to 2000 | < 200 | Cc1ccc2c(N)c(C(=O)NCCc3ccc(N4CCN[C@H](C(C)C)C4)cc3)sc2n1 |
| 200 to 2000 | < 200 | Cc1ccc2c(N)c(C(=O)NCCc3ccc(N4CCCC5(CCNCC5)C4)cc3)sc2n1 |
|  | 2000 to 10000 | CC(=O)Nc1ccc2c(N)c(C(=O)NCCc3ccc(N4CCNCC4)cc3)sc2n1 |
| 200 to 2000 | 200 to 2000 | Cc1ccc2c(N)c(C(=O)NCCc3ccc(N4CCC5(CCCNC5)CC4)cc3)sc2n1 |
| 200 to 2000 | < 200 | Cc1ccc2c(N)c(C(=O)NCCc3ccc(N4CC5(CCCN5)C4)cc3)sc2n1 |
| 200 to 2000 | 200 to 2000 | Cc1ccc2c(N)c(C(=O)NCCc3ccc(N4CCCC5(CCCNC5)C4)cc3)sc2n1 (centres undefined) |
|  | 200 to 2000 | Cc1ccc2c(N)c(C(=O)NCCc3ccc(N4CC[C@H]5CNC[C@H]5C4)cc3)sc2n1 |
|  | < 200 | Cc1ccc2c(N)c(C(=O)NCCc3ccc(N4CCNC[C@@H]4C)cc3)sc2n1 |
| < 200 | < 200 | Cc1ccc2c(N)c(C(=O)NCCc3ccc(N4CCNC[C@H]4C)cc3)sc2n1 |
